This is an account of results in patent US11077090B2, “Compounds and compositions and uses thereof” (Sunovion Pharmaceuticals Inc., priority 2016, dated 2021).

This test deals with compound-treated mice. Nature of the test: Neuropharmacological assay (SmartCube): behavioral activity signature and minimal effective dose. In kind it is in vivo. The conditions noted are these: for minimal effective dose: Mus musculus, ip, MED = dose having 50% or more total activity, read-out: Potency: minimal effective dose (MED), binned; for AD: ADHD (probability of activity signature) / AG: analgesic (probability of activity signature) / AX: anxiolytic (probability of activity signature) / CE: cognitive enhancer (probability of activity signature) / DP: anti-depressant (probability of activity signature) / MS: mood stabilizer (probability of activity signature) / PS: anti-psychotic (probability of activity signature) / SD: sedative hypnotic (probability of activity signature) / UN: uncharacterized CNS activity (probability of activity signature): i.p. 15 min before test, most efficacious dose(s). A digest of the protocol:
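Video-recorded behavior is compared algorithmically against a reference-compound database, yielding class probabilities (best dose reported). Compounds given i.p. in NMP/PEG/propylene glycol 15 min pre-test at 3 doses; potency as MED, the dose (mpk, range usually 0.3–30) reaching ≥50% total activity.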

The minimal effective dose is the lowest level tested that produced the effect sought.

For the molecule `Cc1cccc2c1[C@H](N)CO[C@H]2C` [Example 227], the minimal effective dose was 3 to 10 mg/kg, the “AD: ADHD (probability of activity signature)” value (“AD: ADHD” below) is “+ (LOQ ≤ + <5%)”, the “AG: analgesic (probability of activity signature)” value (from here on “AG: analgesic”) is “++ (5% ≤ ++ <25%)” and the “AX: anxiolytic (probability of activity signature)” value (“AX: anxiolytic” below) was “++ (5% ≤ ++ <25%)”. Further, the “CE: cognitive enhancer (probability of activity signature)” value (“CE: cognitive enhancer” below) is listed as “+ (LOQ ≤ + <5%)”, the “DP: anti-depressant (probability of activity signature)” value (“DP: anti-depressant” below) is reported as “+ (LOQ ≤ + <5%)”, the “MS: mood stabilizer (probability of activity signature)” value (“MS: mood stabilizer” for short) was “+ (LOQ ≤ + <5%)” and the “PS: anti-psychotic (probability of activity signature)” value (from here on “PS: anti-psychotic”) is on record as “++ (5% ≤ ++ <25%)”. The “SD: sedative hypnotic (probability of activity signature)” value (“SD: sedative hypnotic” for short) is given as “+ (LOQ ≤ + <5%)” and the “UN: uncharacterized CNS activity (probability of activity signature)” value (“UN: uncharacterized CNS activity” below) is on record as “++++ (50% ≤ ++++)”.

Turning to `C[C@@H]1OCc2ccc(C(F)(F)F)cc2[C@@H]1N.Cl` [Example 228], the minimal effective dose was in the range of 10 to 30 mg/kg, the “AD: ADHD” value is listed as “+ (LOQ ≤ + <5%)”, the “AG: analgesic” value was “++ (5% ≤ ++ <25%)” and the “AX: anxiolytic” value was “++ (5% ≤ ++ <25%)”. Moreover, the “CE: cognitive enhancer” value is recorded as “+ (LOQ ≤ + <5%)”, the “DP: anti-depressant” value is given as “++ (5% ≤ ++ <25%)”, the “MS: mood stabilizer” value is reported as “+ (LOQ ≤ + <5%)” and the “PS: anti-psychotic” value was “++ (5% ≤ ++ <25%)”. Moreover, the “SD: sedative hypnotic” value is “+ (LOQ ≤ + <5%)” and the “UN: uncharacterized CNS activity” value was “+++ (25% ≤ +++ <50%)”.

Regarding `C[C@H]1OCc2ccc(C(F)(F)F)cc2[C@@H]1N.Cl` [Example 229], the minimal effective dose was 3 to 10 mg/kg, the “AD: ADHD” value was “+ (LOQ ≤ + <5%)”, the “AG: analgesic” value is “+ (LOQ ≤ + <5%)” and the “AX: anxiolytic” value is “++ (5% ≤ ++ <25%)”. Further, the “CE: cognitive enhancer” value is reported as “++ (5% ≤ ++ <25%)”, the “DP: anti-depressant” value is “++ (5% ≤ ++ <25%)”, the “MS: mood stabilizer” value is listed as “+ (LOQ ≤ + <5%)” and the “PS: anti-psychotic” value is “++ (5% ≤ ++ <25%)”. The “SD: sedative hypnotic” value is given as “+ (LOQ ≤ + <5%)” and the “UN: uncharacterized CNS activity” value is “+++ (25% ≤ +++ <50%)”.

Take `COc1cccc2c1[C@H](N)[C@H](C)OC2.Cl` [Example 230]: the minimal effective dose fell in the range of 3 to 10 mg/kg, the “AD: ADHD” value was “+ (LOQ ≤ + <5%)”, the “AG: analgesic” value is “+ (LOQ ≤ + <5%)” and the “AX: anxiolytic” value is listed as “++ (5% ≤ ++ <25%)”. Also, the “CE: cognitive enhancer” value is on record as “++ (5% ≤ ++ <25%)”, the “DP: anti-depressant” value was “+ (LOQ ≤ + <5%)”, the “MS: mood stabilizer” value was “+ (LOQ ≤ + <5%)” and the “PS: anti-psychotic” value is reported as “++ (5% ≤ ++ <25%)”. In addition, the “SD: sedative hypnotic” value was “+ (LOQ ≤ + <5%)” and the “UN: uncharacterized CNS activity” value is reported as “++++ (50% ≤ ++++)”.

As to `COc1cccc2c1[C@H](N)[C@@H](C)OC2.Cl` [Example 231], the minimal effective dose fell in the range of 10 to 30 mg/kg, the “AD: ADHD” value is given as “+ (LOQ ≤ + <5%)”, the “AG: analgesic” value was “++ (5% ≤ ++ <25%)” and the “AX: anxiolytic” value was “++ (5% ≤ ++ <25%)”. In addition, the “CE: cognitive enhancer” value is “++ (5% ≤ ++ <25%)”, the “DP: anti-depressant” value is “++ (5% ≤ ++ <25%)”, the “MS: mood stabilizer” value is given as “+ (LOQ ≤ + <5%)” and the “PS: anti-psychotic” value is listed as “+ (LOQ ≤ + <5%)”. For the same molecule, the “SD: sedative hypnotic” value was “+ (LOQ ≤ + <5%)” and the “UN: uncharacterized CNS activity” value is given as “+++ (25% ≤ +++ <50%)”.

For `COc1ccc2c(c1)CO[C@H](C)[C@H]2N.Cl` [Example 232], the minimal effective dose was in the range of 10 to 30 mg/kg, the “AD: ADHD” value is “+ (LOQ ≤ + <5%)”, the “AG: analgesic” value is “++ (5% ≤ ++ <25%)” and the “AX: anxiolytic” value is “++ (5% ≤ ++ <25%)”. For the same molecule, the “CE: cognitive enhancer” value was “+ (LOQ ≤ + <5%)”, the “DP: anti-depressant” value is recorded as “+ (LOQ ≤ + <5%)”, the “MS: mood stabilizer” value is on record as “+ (LOQ ≤ + <5%)” and the “PS: anti-psychotic” value was “+ (LOQ ≤ + <5%)”. Also, the “SD: sedative hypnotic” value is given as “+ (LOQ ≤ + <5%)” and the “UN: uncharacterized CNS activity” value is on record as “++ (5% ≤ ++ <25%)”.

On to `COc1ccc2c(c1)CO[C@@H](C)[C@H]2N.Cl` [Example 233], for which the minimal effective dose was more than 30 mg/kg, the “AD: ADHD” value is reported as “+ (LOQ ≤ + <5%)”, the “AG: analgesic” value is “++ (5% ≤ ++ <25%)” and the “AX: anxiolytic” value was “++ (5% ≤ ++ <25%)”. Moreover, the “CE: cognitive enhancer” value was “++ (5% ≤ ++ <25%)”, the “DP: anti-depressant” value is “+ (LOQ ≤ + <5%)”, the “MS: mood stabilizer” value is “+ (LOQ ≤ + <5%)” and the “PS: anti-psychotic” value was “+ (LOQ ≤ + <5%)”. Besides, the “SD: sedative hypnotic” value is “+ (LOQ ≤ + <5%)” and the “UN: uncharacterized CNS activity” value was “+ (LOQ ≤ + <5%)”.

For `COc1cccc2c1CO[C@@H](C)[C@H]2N.Cl` [Example 234], the minimal effective dose is 10 to 30 mg/kg, the “AD: ADHD” value is recorded as “+ (LOQ ≤ + <5%)”, the “AG: analgesic” value is “++ (5% ≤ ++ <25%)” and the “AX: anxiolytic” value is on record as “+++ (25% ≤ +++ <50%)”. The “CE: cognitive enhancer” value was “++ (5% ≤ ++ <25%)”, the “DP: anti-depressant” value is on record as “+ (LOQ ≤ + <5%)”, the “MS: mood stabilizer” value was “+ (LOQ ≤ + <5%)” and the “PS: anti-psychotic” value is “++ (5% ≤ ++ <25%)”. Moreover, the “SD: sedative hypnotic” value was “++ (5% ≤ ++ <25%)” and the “UN: uncharacterized CNS activity” value is listed as “++ (5% ≤ ++ <25%)”.

As to `COc1cccc2c1CO[C@H](C)[C@H]2N.Cl` [Example 235], the minimal effective dose was more than 30 mg/kg, the “AD: ADHD” value was “+ (LOQ ≤ + <5%)”, the “AG: analgesic” value was “+ (LOQ ≤ + <5%)” and the “AX: anxiolytic” value is given as “++ (5% ≤ ++ <25%)”. The “CE: cognitive enhancer” value was “+ (LOQ ≤ + <5%)”, the “DP: anti-depressant” value is recorded as “+ (LOQ ≤ + <5%)”, the “MS: mood stabilizer” value is listed as “+ (LOQ ≤ + <5%)” and the “PS: anti-psychotic” value was “+ (LOQ ≤ + <5%)”. Moreover, the “SD: sedative hypnotic” value is reported as “+ (LOQ ≤ + <5%)” and the “UN: uncharacterized CNS activity” value is on record as “+ (LOQ ≤ + <5%)”.

Regarding `Cc1cc2c(cc1C)[C@H](N)[C@H](C)OC2.Cl` [Example 237], the minimal effective dose lay in the range of 10 to 30 mg/kg, the “AD: ADHD” value is “+ (LOQ ≤ + <5%)”, the “AG: analgesic” value is reported as “+ (LOQ ≤ + <5%)” and the “AX: anxiolytic” value is “++ (5% ≤ ++ <25%)”. The “CE: cognitive enhancer” value is on record as “+ (LOQ ≤ + <5%)”, the “DP: anti-depressant” value is “+ (LOQ ≤ + <5%)”, the “MS: mood stabilizer” value is listed as “+ (LOQ ≤ + <5%)” and the “PS: anti-psychotic” value was “++ (5% ≤ ++ <25%)”. For the same molecule, the “SD: sedative hypnotic” value is reported as “+++ (25% ≤ +++ <50%)” and the “UN: uncharacterized CNS activity” value is “++ (5% ≤ ++ <25%)”.

As for `Cc1cc2c(cc1C)[C@H](N)[C@@H](C)OC2.Cl` [Example 238], the minimal effective dose lay within 10 to 30 mg/kg, the “AD: ADHD” value is recorded as “+ (LOQ ≤ + <5%)”, the “AG: analgesic” value was “+ (LOQ ≤ + <5%)” and the “AX: anxiolytic” value was “++ (5% ≤ ++ <25%)”. Moreover, the “CE: cognitive enhancer” value is on record as “++ (5% ≤ ++ <25%)”, the “DP: anti-depressant” value was “+ (LOQ ≤ + <5%)”, the “MS: mood stabilizer” value was “+ (LOQ ≤ + <5%)” and the “PS: anti-psychotic” value is “++ (5% ≤ ++ <25%)”. Moreover, the “SD: sedative hypnotic” value is recorded as “+ (LOQ ≤ + <5%)” and the “UN: uncharacterized CNS activity” value is listed as “++++ (50% ≤ ++++)”.

`C[C@@H]1OCc2ccc3c(c2[C@@H]1N)CCCO3.Cl` [Example 248]: the minimal effective dose was 10 to 30 mg/kg, the “AD: ADHD” value is recorded as “+ (LOQ ≤ + <5%)”, the “AG: analgesic” value is given as “++ (5% ≤ ++ <25%)” and the “AX: anxiolytic” value was “++ (5% ≤ ++ <25%)”. The “CE: cognitive enhancer” value is “++ (5% ≤ ++ <25%)”, the “DP: anti-depressant” value is “+ (LOQ ≤ + <5%)”, the “MS: mood stabilizer” value is “+ (LOQ ≤ + <5%)” and the “PS: anti-psychotic” value is on record as “+ (LOQ ≤ + <5%)”. Besides, the “SD: sedative hypnotic” value is on record as “+ (LOQ ≤ + <5%)” and the “UN: uncharacterized CNS activity” value is “+++ (25% ≤ +++ <50%)”.

In the case of `C[C@H]1OCc2ccc3c(c2[C@@H]1N)CCCO3.Cl` [Example 249], the minimal effective dose is 3 to 10 mg/kg, the “AD: ADHD” value was “+ (LOQ ≤ + <5%)”, the “AG: analgesic” value is recorded as “++ (5% ≤ ++ <25%)” and the “AX: anxiolytic” value was “++ (5% ≤ ++ <25%)”. In addition, the “CE: cognitive enhancer” value is given as “++ (5% ≤ ++ <25%)”, the “DP: anti-depressant” value is recorded as “+ (LOQ ≤ + <5%)”, the “MS: mood stabilizer” value is listed as “+ (LOQ ≤ + <5%)” and the “PS: anti-psychotic” value is “++ (5% ≤ ++ <25%)”. For the same molecule, the “SD: sedative hypnotic” value is on record as “+ (LOQ ≤ + <5%)” and the “UN: uncharacterized CNS activity” value is on record as “+++ (25% ≤ +++ <50%)”.
